# B1: G-CSF: recombinant human G-CSF (Wako, Japan), granulocyte colony stimulation factor (protein)
# chain: TPLGPASSLPQSFLLKCLEQVRKIQGDGAALQEKLVSECATYKLCHPEELVLLGHSLGIPWAPLSSCPSQALQLAGCLSQLHSGLFLYQGLLQALEGISPELGPTLDTLQLDVADFATTIWQQMEELGMAPALQPTQGAMPAFASAFQRRAGGVLVASHLQSFLEVSYRVLRHLAQP
# Assays:
# [1] = test system: AML cells in the endosteum; assay: HE and TUNEL staining of bone sections; format: in vivo, NOD/SCID/IL2rg^null mice transplanted with human AML; conditions: bone sections of recipients
# From the text: For experiments involving administration of G-CSF alone, administration of Ara-C alone, and administration of G-CSF followed by administration of Ara-C, recipients of primary transplantation of human AML were used 16 to 24 weeks after transplantation. For each experiment for comparison of various dose groups, a pair of recipients was selected from among litter mates, with the same primary AML sample transplanted in the same amount on the same day so as to suppress variation among the litter mates and variation due to differences in transplantation level. […]
# After administration of Ara-C alone or after administration of Ara-C following pre-administration of G-CSF, the BM of the recipients was evaluated in terms of 1) a flow cytometry fraction of activated caspase-3 positive LSCs undergoing apoptosis, 2) histological localization of cells undergoing apoptosis in the recipient BM as determined by TUNEL staining, 3) percentage and absolute number of remaining viable hCD34^+ AML cells, and 4) frequency and AML-causing potential of remaining LSCs in alternative measurements of the likelihood of AML recurrence via limited dilution and sequential transplantation of sorted hCD34^+ cells. […]
# [2] = test system: LSCs; assay: Limited dilution secondary transplantation of sorted hCD34+ BM cells (LSC frequency, survival of secondary recipients); format: in vivo, NOD/SCID/IL2rg^null mice transplanted with human AML; conditions: secondary recipients of hCD34+ cells from treated mice
# From the text: Newborn (within 2 days of birth) NOD/SCID/IL2rg^null recipient received 150 cGy of total body irradiation using a ^137Cs-source irradiator, followed by intravenous injection of AML cells within two hours. For primary transplantation, 10^3 to 5×10^4 sorted BM cells per recipient from a 7AAD^− lineage (hCD3/hCD4/hCD8) ^−hCD34^+hCD38^− AML patient were used, as described in F. Ishikawa et al., Nat. Biotechnol. 25, 1315 (2007). For secondary transplantation after administration of Ara-C (cytarabine) alone or after administration of G-CSF followed by administration of Ara-C, 2×10^2, 2×10^3, 2×10^4, or 2×10^5 sorted 7AAD^−hCD45^+hCD34^+ BM cells per recipient were used. For fluorescence-activated cell sorting, BMMNC cells from AML patients were labeled with fluorescent dye-conjugated mouse anti-hCD3, anti-hCD4, anti-hCD8, anti-hCD34 and anti-hCD38 monoclonal antibodies (BD Immunocytometry), and BMMNC cells from recipients were labeled with mouse anti-hCD45, anti-hCD34 and anti-hCD38 monoclonal antibodies (BD Immunocytometry); the cells were sorted using FACSAria (Beckton Dickinson, Calif.). Doublets were eliminated via analysis of FSC/SSC-height and FSC/SSC-width. […]
# Differences in the ratios/absolute numbers of cells (%), activated caspase-negative cells (%), and BM CD34^+ cells in the cell cycle were analyzed using two-tailed t-test (GraphPad Prism, GraphPad, San Diego, Calif.). […]
# [3] = test system: CD34+CD38− LSCs and CD34+CD38+ AML non-stem cells; assay: Activated caspase-3 flow cytometry of BM cells undergoing apoptosis; parameters: species or system NOD/SCID/IL2rg^null mice transplanted with human AML; conditions: in vivo administration, recipient BM
# Experimental: Myelocytes were recovered from two tibiae and one femur from each analyzed recipient; MNCs (mononucleocytes) were counted manually and using an automated blood cell analyzer (Celltac α, Nihon Kohden, Japan), and the absolute number of BMMNCs derived from each recipient was estimated. The absolute number of human CD34^+ cells (derived from two tibiae and one femur) per mouse was determined by multiplying the thus-obtained total BMMNC count by 7AAD^−hCD45^+hCD34^+ BM cells (%). BrdU uptake was measured using a BrdU flow kit (BD Pharmingen, Calif.). To quantify cells in the G0 phase of the cell cycle, the cells were stained with Hoechst 33342 and Pyronin Y, and then surface-stained using standard procedures. […]
# [4] = test system: hCD34+ cells, including LSCs; assay: Percentage and absolute number of remaining viable hCD45+CD34+ cells in recipient BM; format: in vivo, NOD/SCID/IL2rg^null mice transplanted with human AML; conditions: mean +/− SEM; for #CD45+CD34+/mouse (×10^6): two tibiae and one femur; for % CD45+CD34+: viable cells in BM
# From the text: (§1) For experiments involving administration of G-CSF alone, administration of Ara-C alone, and administration of G-CSF followed by administration of Ara-C, recipients of primary transplantation of human AML were used 16 to 24 weeks after transplantation. For each experiment for comparison of various dose groups, a pair of recipients was selected from among litter mates, with the same primary AML sample transplanted in the same amount on the same day so as to suppress variation among the litter mates and variation due to differences in transplantation level. Performed were administration of recombinant human G-CSF (Wako, Japan): 300 μg/kg s.c. qd×5 days; administration of Ara-C (Biogenesis, Poole, UK): 1 g/kg i.p. qd×2 days; administration of G-CSF+Ara-C: G-CSF 300 μg/kg s.c. qd×5 days, and concurrent administration of Ara-C 1 g/kg i.p. qd×2 days on days 4 and 5 of administration. The recipients were killed 16 hours after final injection. BrdU (1.5 mg/mouse; BD Biosciences, Calif.) was injected by i.p. to recipients under a cell cycle analysis by BrdU uptake immediately after the final injection (s.c. stands for subcutaneous administration, and i.p. for intraperitoneal administration).
# (§2) For evaluation of human AML transplantation, blood was drawn from the orbital sinus of each recipient every 3 weeks starting at week 6 after transplantation. Myelocytes were recovered from two tibiae and one femur from each analyzed recipient; MNCs (mononucleocytes) were counted manually and using an automated blood cell analyzer (Celltac α, Nihon Kohden, Japan), and the absolute number of BMMNCs derived from each recipient was estimated. The absolute number of human CD34^+ cells (derived from two tibiae and one femur) per mouse was determined by multiplying the thus-obtained total BMMNC count by 7AAD^−hCD45^+hCD34^+ BM cells (%). BrdU uptake was measured using a BrdU flow kit (BD Pharmingen, Calif.). To quantify cells in the G0 phase of the cell cycle, the cells were stained with Hoechst 33342 and Pyronin Y, and then surface-stained using standard procedures. Quantitation of cells undergoing apoptosis was performed by staining activated caspase-3 in the cells using a rabbit anti-activated caspase-3 monoclonal antibody (BD Pharmingen, Calif.). Surface labeling was achieved using mouse anti-human CD45, anti-CD34 and anti-CD38 monoclonal antibodies (BD Immunocytometry). Analyses were performed using FACSAria and FACSCanto II (Becton Dickinson, Calif.).
# To evaluate the frequency and function of LSCs remaining after each dosing, limited dilution and secondary transplantation of living hCD34^+ BM cells, including leukemia stem cells sorted from recipients given administration of Ara-C alone or G-CSF+Ara-C, were performed. The absolute number of hCD34^+ cells was obtained from the number of mononucleocytes in two tibiae and one femur derived from each recipient, and viable hCD34^+ cell (%) was obtained by flow cytometry.
# The results are shown as mean value +/− SEM; differences were examined by two-tailed t-test.
# [5] = test system: hCD34+CD38− LSCs; assay: Flow cytometric cell cycle analysis of LSCs in BM of recipients of primary transplantation of human AML; format: in vivo, NOD/SCID/IL2rg^null mice transplanted with human AML
# From the text: Newborn (within 2 days of birth) NOD/SCID/IL2rg^null recipient received 150 cGy of total body irradiation using a ^137Cs-source irradiator, followed by intravenous injection of AML cells within two hours. For primary transplantation, 10^3 to 5×10^4 sorted BM cells per recipient from a 7AAD^− lineage (hCD3/hCD4/hCD8) ^−hCD34^+hCD38^− AML patient were used, as described in F. Ishikawa et al., Nat. Biotechnol. 25, 1315 (2007). For secondary transplantation after administration of Ara-C (cytarabine) alone or after administration of G-CSF followed by administration of Ara-C, 2×10^2, 2×10^3, 2×10^4, or 2×10^5 sorted 7AAD^−hCD45^+hCD34^+ BM cells per recipient were used. For fluorescence-activated cell sorting, BMMNC cells from AML patients were labeled with fluorescent dye-conjugated mouse anti-hCD3, anti-hCD4, anti-hCD8, anti-hCD34 and anti-hCD38 monoclonal antibodies (BD Immunocytometry), and BMMNC cells from recipients were labeled with mouse anti-hCD45, anti-hCD34 and anti-hCD38 monoclonal antibodies (BD Immunocytometry); the cells were sorted using FACSAria (Beckton Dickinson, Calif.). Doublets were eliminated via analysis of FSC/SSC-height and FSC/SSC-width. After the sorting, the purities of hCD34^+hCD38^− cells and hCD34^+ cells exceeded 98%.
# For experiments involving administration of G-CSF alone, administration of Ara-C alone, and administration of G-CSF followed by administration of Ara-C, recipients of primary transplantation of human AML were used 16 to 24 weeks after transplantation. […]
# as §2, with “Surface labeling was achieved using mouse anti-human CD45, anti-CD34 and anti-CD38 monoclonal antibodies (BD Immunocytometry). Analyses were performed using FACSAria and FACSCanto II (Becton Dickinson, Calif.).” left out
# [6] = test system: AML cells in the endosteal region; assay: Histological analysis of bone sections (BrdU uptake, Ki67 immunofluorescence) of recipients of human AML; format: in vivo, NOD/SCID/IL2rg^null mice transplanted with human AML
# From the text: as §1
# Paraformaldehyde-fixed, decalcified, paraffin-embedded sections were prepared from femurs of the recipients primarily transplanted with AML. […]
# [7] = post-Ara-C, intraperitoneal, n=15
# [8] = after administration of G-CSF in vivo, all cases examined
molecule,measurement,setting,value
"Nc1ccn([C@@H]2O[C@H](CO)[C@@H](O)[C@@H]2O)c(=O)n1 [Ara-C, cytarabine]",Cell death in the endosteum (TUNEL and HE staining),[1],TUNEL-negative AML cells remaining in the endosteum
same,Secondary mouse recipients surviving beyond 19 weeks after transplantation,[2],None
same,Apoptosis of CD34+CD38+ AML non-stem cells (activated caspase-3),[3],underwent apoptosis
same,Apoptosis of CD34+CD38− LSCs (activated caspase-3),[3],the majority of CD34^+CD38^− LSCs did not
same,#CD45+CD34+/mouse (×10^6),[4]; Case ID 1,1.4 +/− 0.3 ×10^6
same,% CD45+CD34+,[4]; Case ID 1,29.7 +/− 1.6%
same,#CD45+CD34+/mouse (×10^6),[4]; Case ID 2,4.9 +/− 0.7 ×10^6
same,% CD45+CD34+,[4]; Case ID 2,84.9 +/− 2.5%
same,#CD45+CD34+/mouse (×10^6),[4]; Case ID 3,2.3 +/− 0.1 ×10^6
same,% CD45+CD34+,[4]; Case ID 3,80.2 +/− 2.3%
same,#CD45+CD34+/mouse (×10^6),[4]; Case ID 4,3.6 +/− 0.8 ×10^6
same,% CD45+CD34+,[4]; Case ID 4,68.0 +/− 2.8%
same,#CD45+CD34+/mouse (×10^6),[4]; Case ID 5,2.1 +/− 0.2 ×10^6
same,% CD45+CD34+,[4]; Case ID 5,61.5 +/− 7.5%
same,#CD45+CD34+/mouse (×10^6),[4]; Case ID 6,5.3 +/− 1.4 ×10^6
same,% CD45+CD34+,[4]; Case ID 6,49.0 +/− 9.2%
same,#CD45+CD34+/mouse (×10^6),[4]; Case ID 7,0.7 +/− 0.1 ×10^6
same,% CD45+CD34+,[4]; Case ID 7,16.5 +/− 1.7%
same,% G0/G1 of CD34+CD38− AML cells,[5]; [7],91.7+/−2.3%
same,% S of CD34+CD38− AML cells,[5]; [7],0.1+/−0.1%
B1,Expression of Ki67 in AML cells in BM center and endosteal region,[6]; after 5 days of administration of G-CSF,expression of Ki67 was induced
same,BrdU uptake of AML cells in the endosteal region,[6]; after administration of G-CSF,increase in BrdU uptake
same,LSCs in the G0 phase fraction,[5]; [8],decreased significantly
same,LSCs in the S phase and G2/M phase,[5]; [8],increased
